“And” between values parts separate entries of the source, which are not always exact repeats. Equal values may be shown once.
Conditions: Liquid, Hot wire method

FC(F)CC(F)(F)F [1,1,1,3,3-pentafluoropropane]
Conditions | thermal conductivity
302.4 K, 9755 kPa | 0.09135 W/m/K
302.4 K, 43574 kPa | 0.104 W/m/K
302.41 K, 9754 kPa | 0.09128 W/m/K
302.43 K, 27824 kPa | 0.09846 W/m/K
302.43 K, 35521 kPa | 0.1012 W/m/K
302.43 K, 35524 kPa | 0.1013 W/m/K
302.44 K, 27822 kPa | 0.09861 W/m/K
302.47 K, 4917 kPa | 0.08905 W/m/K
302.47 K, 4920 kPa | 0.08908 W/m/K
302.49 K, 21586 kPa | 0.09609 W/m/K
302.49 K, 21587 kPa | 0.09598 W/m/K
302.51 K, 297 kPa | 0.08675 W/m/K
302.52 K, 295 kPa | 0.08688 W/m/K
302.57 K, 15359 kPa | 0.09341 W/m/K
302.57 K, 15368 kPa | 0.0935 W/m/K
302.68 K, 68021 kPa | 0.1116 W/m/K
302.68 K, 68023 kPa | 0.1115 W/m/K
302.69 K, 62436 kPa | 0.1101 W/m/K
302.7 K, 62429 kPa | 0.1097 W/m/K
302.76 K, 52483 kPa | 0.107 W/m/K
302.76 K, 52489 kPa | 0.1069 W/m/K
302.81 K, 43572 kPa | 0.104 W/m/K
302.82 K, 43572 kPa | 0.1041 W/m/K
302.85 K, 35512 kPa | 0.1012 W/m/K
302.85 K, 35521 kPa | 0.1013 W/m/K
302.87 K, 9749 kPa | 0.09105 W/m/K
302.87 K, 9754 kPa | 0.091 W/m/K
302.88 K, 27813 kPa | 0.09844 W/m/K
302.88 K, 27817 kPa | 0.09814 W/m/K
302.93 K, 4918 kPa | 0.08893 W/m/K
302.93 K, 4920 kPa | 0.0888 W/m/K
302.94 K, 21581 kPa | 0.09604 W/m/K
302.94 K, 21589 kPa | 0.09618 W/m/K
302.99 K, 297 kPa | 0.08639 W/m/K
302.99 K, 298 kPa | 0.08647 W/m/K
303.03 K, 15369 kPa | 0.09337 W/m/K
303.04 K, 15370 kPa | 0.09341 W/m/K
303.11 K, 68011 kPa | 0.1115 W/m/K
303.12 K, 68009 kPa | 0.1114 W/m/K
303.13 K, 62430 kPa | 0.11 W/m/K
303.13 K, 62436 kPa | 0.11 W/m/K
303.21 K, 52481 kPa | 0.1068 W/m/K
303.21 K, 52487 kPa | 0.1068 W/m/K
303.27 K, 43574 kPa | 0.104 W/m/K
303.27 K, 43576 kPa | 0.1041 W/m/K
303.33 K, 35513 kPa | 0.1011 W/m/K
303.33 K, 35514 kPa | 0.1012 W/m/K
303.36 K, 9753 kPa | 0.09097 W/m/K
303.36 K, 9758 kPa | 0.09104 W/m/K
303.36 K, 27804 kPa | 0.0984 W/m/K
303.37 K, 27811 kPa | 0.09842 W/m/K
303.44 K, 4916 kPa | 0.08869 W/m/K
303.44 K, 4920 kPa | 0.08879 W/m/K
303.44 K, 21579 kPa | 0.09595 W/m/K
303.44 K, 21587 kPa | 0.09607 W/m/K
303.51 K, 294 kPa | 0.08655 W/m/K
303.51 K, 297 kPa | 0.08645 W/m/K
303.54 K, 15365 kPa | 0.09343 W/m/K
303.54 K, 15366 kPa | 0.09328 W/m/K
321.62 K, 4352 kPa | 0.08273 W/m/K
321.63 K, 4356 kPa | 0.08308 W/m/K
321.64 K, 337 kPa | 0.08036 W/m/K
321.65 K, 338 kPa | 0.08047 W/m/K
321.65 K, 69905 kPa | 0.1085 W/m/K
321.65 K, 69906 kPa | 0.1083 W/m/K
321.68 K, 58591 kPa | 0.1047 W/m/K
321.68 K, 58592 kPa | 0.1049 W/m/K
321.69 K, 40553 kPa | 0.09923 W/m/K
321.7 K, 40558 kPa | 0.09918 W/m/K
321.7 K, 49855 kPa | 0.1015 W/m/K
321.7 K, 49873 kPa | 0.1019 W/m/K
321.71 K, 33193 kPa | 0.0964 W/m/K
321.71 K, 33197 kPa | 0.09631 W/m/K
321.73 K, 26150 kPa | 0.09344 W/m/K
321.73 K, 26151 kPa | 0.093 W/m/K
321.74 K, 19697 kPa | 0.09044 W/m/K
321.76 K, 19703 kPa | 0.09051 W/m/K
321.77 K, 13835 kPa | 0.08752 W/m/K
321.78 K, 13839 kPa | 0.08772 W/m/K
321.81 K, 8795 kPa | 0.08531 W/m/K
321.82 K, 8794 kPa | 0.08538 W/m/K
322.02 K, 69892 kPa | 0.1082 W/m/K
322.02 K, 69896 kPa | 0.1083 W/m/K
322.06 K, 58582 kPa | 0.1049 W/m/K
322.06 K, 58584 kPa | 0.105 W/m/K
322.07 K, 4350 kPa | 0.08295 W/m/K
322.07 K, 4352 kPa | 0.08313 W/m/K
322.08 K, 49847 kPa | 0.1021 W/m/K
322.09 K, 40542 kPa | 0.09897 W/m/K
322.09 K, 49848 kPa | 0.1021 W/m/K
322.1 K, 332 kPa | 0.08025 W/m/K
322.1 K, 40546 kPa | 0.09896 W/m/K
322.11 K, 332 kPa | 0.08034 W/m/K
322.11 K, 33198 kPa | 0.09595 W/m/K
322.12 K, 33200 kPa | 0.09642 W/m/K
322.14 K, 26147 kPa | 0.09346 W/m/K
322.15 K, 26148 kPa | 0.09328 W/m/K
322.18 K, 19689 kPa | 0.09041 W/m/K
322.18 K, 19694 kPa | 0.09034 W/m/K
322.23 K, 13831 kPa | 0.08764 W/m/K
322.23 K, 13837 kPa | 0.08773 W/m/K
322.27 K, 8791 kPa | 0.08514 W/m/K
322.27 K, 8795 kPa | 0.08522 W/m/K
322.42 K, 69875 kPa | 0.1077 W/m/K
322.42 K, 69881 kPa | 0.1077 W/m/K
322.47 K, 58570 kPa | 0.1047 W/m/K
322.48 K, 58576 kPa | 0.1046 W/m/K
322.51 K, 49828 kPa | 0.1017 W/m/K
322.51 K, 49834 kPa | 0.1019 W/m/K
322.53 K, 40525 kPa | 0.09861 W/m/K
322.53 K, 40531 kPa | 0.09882 W/m/K
322.56 K, 4352 kPa | 0.0827 W/m/K and 0.08272 W/m/K
322.56 K, 33194 kPa | 0.09577 W/m/K and 0.09565 W/m/K
322.6 K, 328 kPa | 0.08026 W/m/K
322.61 K, 332 kPa | 0.08024 W/m/K
322.61 K, 26147 kPa | 0.09305 W/m/K
322.61 K, 26148 kPa | 0.09299 W/m/K
322.65 K, 19690 kPa | 0.0904 W/m/K
322.66 K, 19689 kPa | 0.09023 W/m/K
322.71 K, 13830 kPa | 0.08772 W/m/K
322.72 K, 13830 kPa | 0.08785 W/m/K
322.76 K, 8791 kPa | 0.08512 W/m/K
322.77 K, 8793 kPa | 0.08496 W/m/K
322.85 K, 69859 kPa | 0.1077 W/m/K
322.86 K, 69861 kPa | 0.1078 W/m/K
322.92 K, 58557 kPa | 0.1047 W/m/K
322.92 K, 58569 kPa | 0.1047 W/m/K
322.96 K, 49820 kPa | 0.1018 W/m/K
322.97 K, 49830 kPa | 0.1018 W/m/K
323 K, 40517 kPa | 0.09874 W/m/K
323 K, 40525 kPa | 0.09862 W/m/K
323.04 K, 33192 kPa | 0.0959 W/m/K
323.05 K, 33192 kPa | 0.09594 W/m/K
323.09 K, 4348 kPa | 0.08267 W/m/K
323.1 K, 4349 kPa | 0.08248 W/m/K
323.1 K, 26147 kPa | 0.09286 W/m/K
323.11 K, 26150 kPa | 0.09307 W/m/K
323.15 K, 332 kPa | 0.0802 W/m/K

Reference: the NIST ThermoML archive (doi:10.1021/acs.jced.6b00350)
